ChEMBL document CHEMBL4610120, “New Broad-Spectrum Antibiotics Containing a Pyrrolobenzodiazepine Ring with Activity against Multidrug-Resistant Gram-Negative Bacteria” (J Med Chem, 2020)
Values after ≈ are worked out from the molar mass of the structure shown. Active and inactive are the calls of the source. No cut-off for these calls is given here.

Columns and labels:
Acinetobacter baumannii [1] = assay: Ratio of MIC for multidrug-resistant Acinetobacter baumannii AYE to MIC for multidrug-resistant Acinetobacter baumannii AYE in presence of efflux pump inhibitor PAbetaN; assay type: functional
Acinetobacter baumannii [2] = assay: Ratio of MIC for multidrug-resistant Acinetobacter baumannii AYE to MIC for multidrug-resistant Acinetobacter baumannii AYE in presence of efflux pump inhibitor CCCP; assay type: functional
[3] = Ratio of MIC for Pseudomonas aeruginosa PAO1 to MIC for Pseudomonas aeruginosa harboring MexCD mutant; assay type: functional
Staphylococcus aureus = assay: Antibacterial activity against methicillin sensitive Staphylococcus aureus NCTC 6571 by microdilution broth method; assay type: functional
Klebsiella pneumoniae [4] = assay: Bactericidal activity against multidrug-resistant Klebsiella pneumoniae NCTC 13368 assessed as viable bacterial count at 4 times MIC measured after 4 to 24 hrs by Miles-Misra dilution method based time-kill assay; assay type: functional, organism-based
Klebsiella pneumoniae [5] = assay: Bactericidal activity against multidrug-resistant Klebsiella pneumoniae 16 assessed as viable bacterial count at 4 times MIC measured after 4 to 24 hrs by Miles-Misra dilution method based time-kill assay; assay type: functional, organism-based
Klebsiella pneumoniae [6] = assay: Bactericidal activity against multidrug-resistant Klebsiella pneumoniae NCTC 13438 assessed as viable bacterial count at 4 times MIC measured after 4 to 24 hrs by Miles-Misra dilution method based time-kill assay; assay type: functional, organism-based
Acinetobacter baumannii [7] = assay: Bactericidal activity against Acinetobacter baumannii ATCC 17978 assessed as reduction in viable bacterial count at 4 times MIC measured up to 24 hrs by Miles-Misra dilution method based time-kill assay; assay type: functional, organism-based
Acinetobacter baumannii [8] = assay: Bactericidal activity against Acinetobacter baumannii AYE assessed as reduction in viable bacterial count at 4 times MIC measured after 24 hrs by Miles-Misra dilution method based time-kill assay; assay type: functional, organism-based
Acinetobacter baumannii [9] = assay: Bactericidal activity against Acinetobacter baumannii NCTC 13424 assessed as reduction in viable bacterial count at 4 times MIC measured after 24 hrs by Miles-Misra dilution method based time-kill assay; assay type: functional, organism-based
Acinetobacter baumannii [10] = assay: Antimicrobial activity against Acinetobacter baumannii ATCC 17978 in presence of efflux pump inhibitor CCCP by microdilution broth method; assay type: functional
Acinetobacter baumannii [11] = assay: Antimicrobial activity against Acinetobacter baumannii ATCC 17978 assessed as mutation frequency at 4 times MIC measured after 48 hrs; assay type: functional
Klebsiella pneumoniae [12] = assay: Ratio of MIC for multidrug-resistant Klebsiella pneumoniae NCTC 13368-7-R1 measured after 10 passages to MIC for multidrug-resistant Klebsiella pneumoniae NCTC 13368-7-R1 measured after 10 passages in presence of membrane permeabilizer PMBN; assay type: functional
Klebsiella pneumoniae [13] = assay: Ratio of MIC for multidrug-resistant Klebsiella pneumoniae NCTC 13368-7-R1 measured after 10 passages to MIC for multidrug-resistant Klebsiella pneumoniae NCTC 13368-7-R1 measured after 10 passages in presence of efflux pump inhibitor PAbetaN; assay type: functional
Klebsiella pneumoniae [14] = assay: Antimicrobial activity against Klebsiella pneumoniae M6 by microdilution broth method; assay type: functional
Klebsiella pneumoniae [15] = assay: Antimicrobial activity against multidrug-resistant Klebsiella pneumoniae NCTC 13368 by microdilution broth method; assay type: functional
Pseudomonas aeruginosa [16] = assay: Antimicrobial activity against multidrug-resistant Pseudomonas aeruginosa NCTC 13437 by microdilution broth method; assay type: functional
Acinetobacter baumannii [17] = assay: Antimicrobial activity against multidrug-resistant Acinetobacter baumannii NCTC 13424 by microdilution broth method; assay type: functional
Acinetobacter baumannii [18] = assay: Antimicrobial activity against multidrug-resistant Acinetobacter baumannii NCTC 13302 by microdilution broth method; assay type: functional
Acinetobacter baumannii [19] = assay: Antimicrobial activity against multidrug-resistant Acinetobacter baumannii UKA2 by microdilution broth method; assay type: functional
Acinetobacter baumannii [20] = assay: Antimicrobial activity against multidrug-resistant Acinetobacter baumannii W1 by microdilution broth method; assay type: functional
Klebsiella pneumoniae [21] = assay: Bactericidal activity against multidrug-resistant Klebsiella pneumoniae NCTC 13438 assessed as reduction in viable bacterial count at 4 times MIC measured up to 24 hrs by Miles-Misra dilution method based time-kill assay; assay type: functional, organism-based
Acinetobacter baumannii [22] = assay: Bactericidal activity against Acinetobacter baumannii AYE assessed as reduction in viable bacterial count at 4 times MIC measured up to 24 hrs by Miles-Misra dilution method based time-kill assay; assay type: functional, organism-based
Acinetobacter baumannii [23] = assay: Bactericidal activity against Acinetobacter baumannii NCTC 13424 assessed as reduction in viable bacterial count at 4 times MIC measured up to 24 hrs by Miles-Misra dilution method based time-kill assay; assay type: functional, organism-based
Klebsiella pneumoniae [24] = assay: Bactericidal activity against multidrug-resistant Klebsiella pneumoniae NCTC 13368 assessed as reduction in viable bacterial count at 4 times MIC measured after 6 hrs by Miles-Misra dilution method based time-kill assay; assay type: functional, organism-based
Klebsiella pneumoniae [25] = assay: Antibacterial activity against multidrug-resistant Klebsiella pneumoniae NCTC 13368-7-R1 measured after 10 passages by microdilution broth method; assay type: functional
Klebsiella pneumoniae [26] = assay: Antibacterial activity against multidrug-resistant Klebsiella pneumoniae NCTC 13368-7-R2 measured after 10 passages by microdilution broth method; assay type: functional
Klebsiella pneumoniae [27] = assay: Antibacterial activity against multidrug-resistant Klebsiella pneumoniae NCTC 13368-7-R1 measured after 10 passages in presence of efflux pump inhibitor CCCP by microdilution broth method; assay type: functional
Klebsiella pneumoniae [28] = assay: Antibacterial activity against multidrug-resistant Klebsiella pneumoniae NCTC 13368-7-R2 measured after 10 passages in presence of efflux pump inhibitor CCCP by microdilution broth method; assay type: functional
Klebsiella pneumoniae [29] = assay: Antimicrobial activity against multidrug-resistant Klebsiella pneumoniae NCTC 13438 in presence of efflux pump inhibitor CCCP by microdilution broth method; assay type: functional
Acinetobacter baumannii [30] = assay: Antimicrobial activity against multidrug-resistant Acinetobacter baumannii AYE in presence of efflux pump inhibitor CCCP by microdilution broth method; assay type: functional
Klebsiella pneumoniae [31] = assay: Antibacterial activity against multidrug-resistant Klebsiella pneumoniae NCTC 13368-7-R1 measured after 10 passages in presence of efflux pump inhibitor PAbetaN by microdilution broth method; assay type: functional
Klebsiella pneumoniae [32] = assay: Antibacterial activity against multidrug-resistant Klebsiella pneumoniae NCTC 13368-7-R2 measured after 10 passages in presence of efflux pump inhibitor PAbetaN by microdilution broth method; assay type: functional
Klebsiella pneumoniae [33] = assay: Antibacterial activity against multidrug-resistant Klebsiella pneumoniae NCTC 13368-7-R1 measured after 10 passages in presence of membrane permeabilizer PMBN by microdilution broth method; assay type: functional
Klebsiella pneumoniae [34] = assay: Antibacterial activity against multidrug-resistant Klebsiella pneumoniae NCTC 13368-7-R2 measured after 10 passages in presence of membrane permeabilizer PMBN by microdilution broth method; assay type: functional
Klebsiella pneumoniae [35] = assay: Antimicrobial activity against multidrug-resistant Klebsiella pneumoniae 16 in presence of membrane permeabilizer PMBN by microdilution broth method; assay type: functional
Pseudomonas aeruginosa [36] = assay: Antimicrobial activity against multidrug-resistant Pseudomonas aeruginosa NCTC 13437 in presence of membrane permeabilizer PMBN by microdilution broth method; assay type: functional
Klebsiella pneumoniae [37] = assay: Ratio of MIC for multidrug-resistant Klebsiella pneumoniae NCTC 13368-7-R2 measured after 10 passages to MIC for multidrug-resistant Klebsiella pneumoniae NCTC 13368-7-R2 measured after 10 passages in presence of membrane permeabilizer PMBN; assay type: functional
Klebsiella pneumoniae [38] = assay: Ratio of MIC for multidrug-resistant Klebsiella pneumoniae NCTC 13368 to MIC for multidrug-resistant Klebsiella pneumoniae NCTC 13368 in presence of membrane permeabilizer PMBN; assay type: functional
[39] = Solubility of the compound at 32 mg/L; assay type: physicochemical

Structure (SMILES): COc1cc2c(cc1OCCCC(=O)Nc1cc(C(=O)Nc3ccc4sc(C(=O)N(C)C)cc4c3)n(C)c1)N=C[C@@H]1CCCN1C2=O
- Ratio (Acinetobacter baumannii [1]): 4
- Ratio (Acinetobacter baumannii [2]): 4
- Ratio [3]: > 4
- MIC (Staphylococcus aureus): 0.03 µg/mL (≈ 0.0457 µM)
- Activity (Klebsiella pneumoniae [4]): Below limit of detection
- Activity (Klebsiella pneumoniae [5]): Below limit of detection
- Activity (Klebsiella pneumoniae [6]): Below limit of detection
- Activity (Acinetobacter baumannii [7]): Active
- Activity (Acinetobacter baumannii [8]): inactive
- Activity (Acinetobacter baumannii [9]): inactive
- MIC (Acinetobacter baumannii [10]): 0.25 µg/mL
- Activity (Acinetobacter baumannii [11]): <1.5 ×10⁻⁸ No_unit

Structure (SMILES): COc1cc2c(cc1OCCCC(=O)Nc1cc(C(=O)Nc3ccc4oc(C(=O)N5CCSCC5)cc4c3)n(C)c1)N=C[C@@H]1CCCN1C2=O
- Ratio (Klebsiella pneumoniae [12]): 4
- Ratio (Klebsiella pneumoniae [13]): 4
- MIC (Klebsiella pneumoniae [14]): 1 µg/mL (≈ 1.43 µM)
- MIC (Klebsiella pneumoniae [15]): 32 µg/mL (≈ 45.8 µM)
- MIC (Pseudomonas aeruginosa [16]): > 32 µg/mL
- MIC (Acinetobacter baumannii [17]): 1 to 2 µg/mL (≈ 1.43 to 2.86 µM)
- MIC (Acinetobacter baumannii [18]): 4 µg/mL (≈ 5.72 µM)
- MIC (Acinetobacter baumannii [19]): 4 µg/mL (≈ 5.72 µM)
- MIC (Acinetobacter baumannii [20]): 4 µg/mL (≈ 5.72 µM)
- Activity (Klebsiella pneumoniae [21]): Active
- Activity (Acinetobacter baumannii [22]): Active
- Activity (Acinetobacter baumannii [23]): Active
- Activity (Klebsiella pneumoniae [24]): Active
- MIC (Klebsiella pneumoniae [25]): 128 µg/mL (≈ 183 µM)
- MIC (Klebsiella pneumoniae [26]): > 128 µg/mL
- MIC (Klebsiella pneumoniae [27]): 128 µg/mL
- MIC (Klebsiella pneumoniae [28]): > 128 µg/mL
- MIC (Klebsiella pneumoniae [29]): 4 µg/mL
- MIC (Acinetobacter baumannii [30]): 4 µg/mL
- MIC (Klebsiella pneumoniae [31]): 32 µg/mL
- MIC (Klebsiella pneumoniae [32]): 128 µg/mL
- MIC (Klebsiella pneumoniae [33]): 8 µg/mL
- MIC (Klebsiella pneumoniae [34]): 64 µg/mL
- MIC (Klebsiella pneumoniae [35]): 0.5 µg/mL
- MIC (Pseudomonas aeruginosa [36]): 2 to 32 µg/mL
- Ratio (Klebsiella pneumoniae [37]): 4
- Ratio (Klebsiella pneumoniae [38]): 4
- solubility [39]: Insoluble
